{"source": "patent US20230346831A1", "about": "“METHODS FOR TREATING […] USING LOW DOSE CARBON MONOXIDE” (priority 2020, published 2023)", "tested_on": "MCF7/TGL cells", "test": "metabolomic assay (polar metabolite profiling, mass spectrometry)", "type": "cell-based, human", "conditions": "MCF7/TGL cells treated with CO, replicates CO 1-3", "description": "Extraction and analysis were performed with the same parameters as the method disclosed in FIG. 7.\n7 × 10^6 cells were seeded in 10-cm cell culture plates with DMEM containing 10% FBS, 0.2 mM L-glutamine and 1% penicillin/streptomycin. Additionally, MCF7/TGL/pQ was cultured in media containing 0.5 µgml^-1 puromycin and 25 mM HEPES. After 16 hours of incubation, metabolites were extracted from the cells using 80% methanol. The remaining steps were carried out by Weill Cornell Medicine Proteomics and Metabolomics Core Facility according to M. D. Goncalves et al., Proc Natl Acad Sci USA 115, E743-E752 (2018). All data analyses were done using MetaboAnalyst 4.0 (www.metaboanalyst.ca/).\nTo investigate whether 250 ppm CO mimics hypoxia, the HiF1α protein levels were examined in CO treated MCF7/TGL and MDA-MB-231/TGL cells. […] To determine whether 250 ppm CO affects metabolism, polar metabolites were profiled using two breast cancer cell lines, MCF7/TGL and MDA-MB-231/TGL (FIGS. 7-9).", "note": "Several values for one entry are separate records, joined by “and”; a condition that tells them apart may be missing. Equal values may be shown once.", "data": [{"compound": "[C-]#[O+]", "note": "[CO, Carbon monoxide]", "values": [{"measurement": "Peak Height Cytosine", "setting": "HMDB00630", "value": "153,235 and 158,066 and 214,404"}, {"measurement": "Peak Height L-Glutamine", "setting": "HMDB00641", "value": "2,010,884,000 and 2,067,120,000 and 2,186,859,000"}, {"measurement": "Peak Height D-Fructose", "setting": "HMDB00660", "value": "2,161,466 and 2,426,370 and 4,390,968"}, {"measurement": "Peak Height Indolelactic acid", "setting": "HMDB00671", "value": "168,415 and 166,030 and 323,966"}, {"measurement": "Peak Height Indoxyl sulfate", "setting": "HMDB00682", "value": "31,554 and 19,025 and 38,019"}, {"measurement": "Peak Height L-Kynurenine", "setting": "HMDB00684", "value": "186,534 and 218,684 and 386,445"}, {"measurement": "Peak Height L-Leucine", "setting": "HMDB00687", "value": "319,755,000 and 339,183,100 and 446,258,700"}, {"measurement": "Peak Height L-Methionine", "setting": "HMDB00696", "value": "110,122,300 and 114,069,500 and 202,567,100"}, {"measurement": "Peak Height Hexanoylcarnirine", "setting": "HMDB00705", "value": "309,788 and 384,626 and 554,943"}, {"measurement": "Peak Height Hippuric acid", "setting": "HMDB00714", "value": "41,839 and 33,037 and 50,895"}, {"measurement": "Peak Height Kynurenic acid", "setting": "HMDB00715", "value": "57,830 and 46,636 and 67,981"}, {"measurement": "Peak Height Malic acid", "setting": "HMDB00744", "value": "118,667,000 and 141,604,200 and 190,900,500"}, {"measurement": "Peak Height N-Acetyl-L-alanine", "setting": "HMDB00766", "value": "3,050,982 and 3,282,590 and 5,343,814"}, {"measurement": "Peak Height Phenyllactic acid", "setting": "HMDB00779", "value": "375,745 and 377,557 and 505,569"}, {"measurement": "Peak Height 3-Phosphoglyceric acid", "setting": "HMDB00807", "value": "830,372 and 1,313,918 and 2,225,910"}, {"measurement": "Peak Height N-Acetyl-L-aspartic acid", "setting": "HMDB00812", "value": "107,096,600 and 121,628,700 and 146,462,300"}, {"measurement": "Peak Height Phenylacetylglycine", "setting": "HMDB00821", "value": "1,455,001 and 1,300,695 and 2,222,377"}, {"measurement": "Peak Height Propionylcarnitine", "setting": "HMDB00824", "value": "88,247,270 and 88,089,220 and 114,107,300"}, {"measurement": "Peak Height Ureidosuccinic acid", "setting": "HMDB00828", "value": "967,259 and 2,115,336 and 2,977,458"}, {"measurement": "Peak Height L-Valine", "setting": "HMDB00883", "value": "166,887,800 and 164,029,200 and 219,042,800"}, {"measurement": "Peak Height Acetylcholine", "setting": "HMDB00895", "value": "79,843,420 and 75,982,720 and 87,382,500"}, {"measurement": "Peak Height NAD", "setting": "HMDB00902", "value": "6,156,942 and 7,187,370 and 12,756,100"}, {"measurement": "Peak Height Citrulline", "setting": "HMDB00904", "value": "9,044,262 and 10,234,370 and 14,264,050"}, {"measurement": "Peak Height L-Tryptophan", "setting": "HMDB00929", "value": "30,996,070 and 34,786,840 and 68,643,900"}, {"measurement": "Peak Height Uridine diphosphate glucuronic acid", "setting": "HMDB00935", "value": "726,138 and 548,546 and 770,082"}, {"measurement": "Peak Height S-Adenosylhomocysteine", "setting": "HMDB00939", "value": "56,652 and 145,088 and 413,677"}, {"measurement": "Peak Height Threonic acid", "setting": "HMDB00943", "value": "76,882,710 and 94,196,330 and 129,619,900"}, {"measurement": "Peak Height dGDP", "setting": "HMDB00960", "value": "686,954 and 539,654 and 784,042"}, {"measurement": "Peak Height Hypotaurine", "setting": "HMDB00965", "value": "4,796,295 and 5,519,371 and 5,943,089"}, {"measurement": "Peak Height Adenosine phosphosulfate", "setting": "HMDB01003", "value": "14,981 and 16,338"}, {"measurement": "Peak Height Deoxyribose 5-phosphate", "setting": "HMDB01031", "value": "19,019 and 34,976 and 30,540"}, {"measurement": "Peak Height S-Lactoylglutathione", "setting": "HMDB01066", "value": "397,298 and 293,636 and 484,692"}, {"measurement": "Peak Height D-Sedoheptulose 7-phosphate", "setting": "HMDB01068", "value": "151,546 and 165,071 and 234,010"}, {"measurement": "Peak Height D-Glyceraldehyde 3-phosphate", "setting": "HMDB01112", "value": "1,475,183 and 1,160,887 and 1,058,732"}, {"measurement": "Peak Height N-Acetylglutamic acid", "setting": "HMDB01138", "value": "567,078 and 897,146 and 1,371,040"}, {"measurement": "Peak Height 5′-Methylthioadenosine", "setting": "HMDB01173", "value": "269,714 and 419,042 and 1,274,477"}, {"measurement": "Peak Height S-Adenosylmethionine", "setting": "HMDB01185", "value": "9,310,209 and 12,590,700 and 17,427,170"}, {"measurement": "Peak Height Guanosine diphosphate", "setting": "HMDB01201", "value": "35,607 and 34,452 and 43,718"}, {"measurement": "Peak Height Allantoic acid", "setting": "HMDB01209", "value": "44,843 and 53,026 and 96,308"}, {"measurement": "Peak Height 5-Thymidylic acid", "setting": "HMDB01227", "value": "266,456 and 133,281 and 141,715"}, {"measurement": "Peak Height Glucosamine 6-phosphate", "setting": "HMDB01254", "value": "44,392 and 62,516 and 90,486"}]}]}
